The values below come from PubChem BioAssay (NCI).

Several values for one entry are separate records, joined by “and”; a condition that tells them apart may be missing. Identical values can stand only once.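 Five concentrations, 48 hours, 96-well plates. GI50: concentration for 50% inhibition of growth. TGI: total growth inhibition.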 A value given as a limit tells only on which side of the number the result lay.

One assay deals with SK-MEL-28 melanoma. Nature of the assay: inhibition of tumour cell growth, NCI panel, 48 h.
In the case of `COc1cc(C(O)c2ccc3c(c2)OCO3)cc(OC)c1OC` (stereo not drawn), the TGI was above 100 µM.
On the same count and under the same terms, in the case of `O=C(CC(C(=O)c1ccco1)c1ccco1)c1ccco1` (stereo not drawn) it was above 100 µM; in that of `CCOC(=O)c1sc2ncnc(N)c2c1C`, above 100 µM.
Turning to `C=CCN1C(=O)/C(=C/c2ccc(C)cc2)N=C1SC1OC(COC(C)=O)C(OC(C)=O)C(OC(C)=O)C1OC(C)=O` (stereo not drawn), the TGI is above 100 µM.
On the same count and under the same terms, in the case of `O=C1CS(=O)(=O)C(c2cccc(Oc3ccccc3)c2)N1c1cc(Cl)ccc1Cl` (stereo not drawn) it was 70.4 µM; in that of `COc1ccc(OC)c2sc(N3C(=O)/C(=C/c4cccc([N+](=O)[O-])c4)N=C3c3ccccc3)nc12`, above 100 µM; in that of `Cc1cccc(/C(Br)=C2/OC(=O)c3ccccc32)c1`, above 100 µM.
Take `N#Cc1c(-c2ccccc2)c2c([nH]c1=O)-c1cc([N+](=O)[O-])ccc1CCC2`: the TGI was above 100 µM.
The same measure, in the same setting: in the case of `O=[N+]([O-])c1cc(Cl)ccc1Sc1ccccc1` it was above 100 µM.
Same read-out and setting: as for `Nc1ccc(-c2nn3c(COc4ccc(Cl)cc4)nnc3s2)cc1`, the figure is above 100 µM.
On the same count and under the same terms, in the case of `COP(=O)(OC)C(Nc1ccc(Cc2ccc(NC(c3ccco3)P(=O)(OC)OC)cc2)cc1)c1ccco1` (stereo not drawn) it was above 100 µM.
`C(=C\c1ccccc1)/COc1ccccc1C(N1CCOCC1)n1nc2ccccc2n1` (stereo not drawn) displayed a TGI of 32.7 µM.
As to `O=C(CC(=O)Nc1ccccc1)NNC(c1cc(N=Nc2ccc(Br)cc2)ccc1O)P(O)O` (stereo not drawn), the TGI is above 10 µM.
On the same count and under the same terms, as for `CCOC(=O)C1CCC(=O)N1C(=O)c1ccccc1Cl` (stereo not drawn), the figure is above 100 µM; as for `CCOC(=O)c1ccc(Nc2nc3ccc(C(F)(F)F)cc3nc2C(=O)OCC)cc1`, above 100 µM; as for `c1ccc([P+](CCCCCCCC[P+](c2ccccc2)(c2ccccc2)c2ccccc2)(c2ccccc2)c2ccccc2)cc1`, above 100 µM.
Molecule `O=C1C(C(O)(C(F)(F)F)C(F)(F)F)CCC1C(O)(C(F)(F)F)C(F)(F)F` (stereo not drawn) registered a TGI above 73.2 µM.
Same read-out and setting: in the case of `CCOC(=O)C1=CC(C)(C(=O)OCC)Nc2c(nc(N)[nH]c2=O)N1` (stereo not drawn) it was above 10 µM.

The test system of another assay is MDA-MB-435. Nature of the assay: inhibition of tumour cell growth, NCI panel, 48 h.
`COc1cc(C(O)c2ccc3c(c2)OCO3)cc(OC)c1OC` (stereo not drawn) had a TGI above 100 µM.
On the same count and under the same terms, as for `Cc1cc(C)nc(NS(=O)(=O)c2ccc(NC(=O)c3cccc4c(NNc5ccc(S(=O)(=O)N=C(N)N)cc5)c5ccccc5nc34)cc2)n1`, the figure is above 50 µM; as for `O=C(CC(C(=O)c1ccco1)c1ccco1)c1ccco1` (stereo not drawn), above 100 µM.
The same measure, in the same setting: as for `CCOC(=O)c1sc2ncnc(N)c2c1C`, the figure is above 100 µM.
For `C=CCN1C(=O)/C(=C/c2ccc(C)cc2)N=C1SC1OC(COC(C)=O)C(OC(C)=O)C(OC(C)=O)C1OC(C)=O` (stereo not drawn), the GI50 is > 70.6 µM and 7.32 µM; the TGI is > 100 µM and 21.4 µM.
Turning to `O=C1CS(=O)(=O)C(c2cccc(Oc3ccccc3)c2)N1c1cc(Cl)ccc1Cl` (stereo not drawn), the TGI is 25.9 µM.
Same read-out and setting: as for `COc1ccc(OC)c2sc(N3C(=O)/C(=C/c4cccc([N+](=O)[O-])c4)N=C3c3ccccc3)nc12`, the figure is 58.3 µM; as for `Cc1cccc(/C(Br)=C2/OC(=O)c3ccccc32)c1`, above 100 µM.
In turn, `N#Cc1c(-c2ccccc2)c2c([nH]c1=O)-c1cc([N+](=O)[O-])ccc1CCC2` registered a TGI above 100 µM.
On the same count and under the same terms, as for `O=[N+]([O-])c1cc(Cl)ccc1Sc1ccccc1`, the figure is above 100 µM; as for `Nc1ccc(-c2nn3c(COc4ccc(Cl)cc4)nnc3s2)cc1`, above 100 µM.
The same measure, in the same setting: in the case of `COP(=O)(OC)C(Nc1ccc(Cc2ccc(NC(c3ccco3)P(=O)(OC)OC)cc2)cc1)c1ccco1` (stereo not drawn) it was above 100 µM; in that of `C(=C\c1ccccc1)/COc1ccccc1C(N1CCOCC1)n1nc2ccccc2n1` (stereo not drawn), 1.9 µM.
On the same count and under the same terms, as for `O=C(CC(=O)Nc1ccccc1)NNC(c1cc(N=Nc2ccc(Br)cc2)ccc1O)P(O)O` (stereo not drawn), the figure is above 10 µM.
Regarding `CCOC(=O)C1CCC(=O)N1C(=O)c1ccccc1Cl` (stereo not drawn), the TGI was above 100 µM.
`CCOC(=O)c1ccc(Nc2nc3ccc(C(F)(F)F)cc3nc2C(=O)OCC)cc1` gave a TGI above 100 µM.
As to `c1ccc([P+](CCCCCCCC[P+](c2ccccc2)(c2ccccc2)c2ccccc2)(c2ccccc2)c2ccccc2)cc1`, the TGI is above 68.4 µM.
On the same count and under the same terms, in the case of `O=C1C(C(O)(C(F)(F)F)C(F)(F)F)CCC1C(O)(C(F)(F)F)C(F)(F)F` (stereo not drawn) it was above 67.6 µM; in that of `CCOC(=O)C1=CC(C)(C(=O)OCC)Nc2c(nc(N)[nH]c2=O)N1` (stereo not drawn), above 10 µM.

In the next assay the test system is NCI-H522 lung. Nature of the assay: inhibition of tumour cell growth, NCI panel, 48 h.
The molecule `COc1cc(C(O)c2ccc3c(c2)OCO3)cc(OC)c1OC` (stereo not drawn) had a TGI above 100 µM.
Same read-out and setting: in the case of `Cc1cc(C)nc(NS(=O)(=O)c2ccc(NC(=O)c3cccc4c(NNc5ccc(S(=O)(=O)N=C(N)N)cc5)c5ccccc5nc34)cc2)n1` it was above 50 µM.
Molecule `O=C(CC(C(=O)c1ccco1)c1ccco1)c1ccco1` (stereo not drawn) showed a TGI above 100 µM.
Molecule `CCOC(=O)c1sc2ncnc(N)c2c1C` returned a TGI above 100 µM.
On to `C=CCN1C(=O)/C(=C/c2ccc(C)cc2)N=C1SC1OC(COC(C)=O)C(OC(C)=O)C(OC(C)=O)C1OC(C)=O` (stereo not drawn), for which the GI50 is 6.85 µM and the TGI was above 100 µM.
`O=C1CS(=O)(=O)C(c2cccc(Oc3ccccc3)c2)N1c1cc(Cl)ccc1Cl` (stereo not drawn) came in with a TGI of 56 µM.
The same measure, in the same setting: as for `COc1ccc(OC)c2sc(N3C(=O)/C(=C/c4cccc([N+](=O)[O-])c4)N=C3c3ccccc3)nc12`, the figure is above 100 µM; as for `Cc1cccc(/C(Br)=C2/OC(=O)c3ccccc32)c1`, above 100 µM; as for `N#Cc1c(-c2ccccc2)c2c([nH]c1=O)-c1cc([N+](=O)[O-])ccc1CCC2`, 97.8 µM.
